The text below walks through data of PMC5731860, “Novel allylated monocarbonyl analogs of curcumin induce mitotic arrest and apoptosis by reactive oxygen species-mediated endoplasmic reticulum stress and inhibition of STAT3” (Oncotarget, 2017).

“Also recorded” adds a separate entry of the source. Some results are limits rather than exact numbers.

Data set [1] can be described thus: H&E histology of vital organs of xenograft mice. It counts as in vivo. Particulars: ip once a day for 12 days. On the procedure:
Portions of heart, liver, kidney and tumor tissues from mice were fixed in 4% paraformaldehyde solution for 1 week at room temperature. Specimens were then dehydrated by passing through graded ethanol, cleared in xylene, and embedded in paraffin wax. Tissue blocks were sectioned at 5 μm thickness and used for H&E and immunohistochemical staining. Tumor tissue sections were stained with indicated primary antibodies for overnight followed by secondary antibodies for 2 h. Diaminobenzidine (DAB) was used for detection. The slides were counterstained with hematoxylin for 30 seconds and mounted. For histologic analysis of heart, kidney and liver tissue sections, we performed routine H&E staining and viewed the sections under a light microscope (20× magnification, Nikon, Japan).

For a further data set, the system named is GES-1. As to the kind of experiment: MTT assay, growth inhibition in normal gastric epithelial cells. It counts as cell-based, human. How it is done:
(§1) First, we investigated whether allylated MAC alter the viability or have cytotoxic effects on cells in culture. We have performed MTT tetrazolium reduction assay following exposure of cancer cells (gastric cancer, BGC823 and SGC-7901; colon cancer, HT-29, HCT-116 and SW-480) and normal gastric epithelial cells (GES-1) to all 20 allylated MAC at a concentration of 20 μM for 24 h. […] In addition, we also found notable solubility and stability profile of these compounds (Supplementary Figure 1).
(§2) Cells were plated at a density of 8 × 10^3 cells/well in 96-well plates and allowed to attach overnight. Stock solutions of allylated MAC and curcumin were prepared in DMSO and diluted in culture media to obtain appropriate concentration. Cells were treated for 24 h and 48 h, following which, 20 μL of 5 mg/ml MTT reagent was added. Purple formazan product was dissolved by the addition of 100 μL DMSO to each well. Absorbance was then monitored at 490 nm using a plate reader (Molecular Device Spectra MAX190, USA). Percentage of cytotoxicity was determined using the following formula: Growth inhibition (%) = (OD of control−OD of test/OD of control×100%).
On the technique in general: Formazan colour is commonly taken as a measure of viable cells.

The subject of data set [2] is BGC-823. As to the kind of experiment: Clonogenic (colony formation) assay. It counts as cell-based, human. Particulars: BGC-823, 2.5, 5 or 10 μM for 24 h, then 7 days culture. On the procedure: (§3) The BGC-823 and SGC-7901 cells were seeded at 1000 cells/well in 6 well plates and allowed to attach overnight. Cells were then exposed to various concentrations (2.5, 5 and 10 μM) of CA10 for 24 h in presence and absence of NAC (5 mM). Following treatments, media was changed to fresh culture media and cultures were followed for 7 days. The experiment was terminated by washing the colonies with PBS and fixation with […] at room temperature for 10 min. Colonies were then stained with Crystal violet for 10 min and counted.

The subject of data set [3] is SGC-7901. As to the kind of experiment: Clonogenic (colony formation) assay. It counts as cell-based, human. Particulars: SGC-7901, 2.5, 5 or 10 μM for 24 h, then 7 days culture. How it is done: as §3
Data set [4] relates to SGC-7901 xenograft tumors. As to the kind of experiment: In vivo mouse xenograft model, tumor growth. Details: species or system mice. An excerpt: (§4) All animal experiments complied with the Wenzhou Medical University's Policy on the Care and Use of Laboratory Animals. Protocols for animal studies were approved by the Wenzhou Medical University Animal Policy and Welfare Committee (Approved documents: 2016/201). Athymic BALB/c nu/nu female mice weighing 20–22 g (6 weeks old) were purchased from Vital River Laboratories (Beijing, China). Animals were housed (6 animals/gage) at a constant room temperature with a 12/12-hr light/dark cycle and fed a standard rodent diet and water ad libitum. SGC-7901 cells were injected subcutaneously into the right flank of each mice at 1 × 10^6 cells in 0.1 mL PBS. Once tumors reached a volume of 100–200 mm^3, mice were randomly divided into 4 groups. These groups included mice treated with 10 mg/kg CA10, mice treated with 20 mg/kg CA10, mice treated 50 mg/kg curcumin, and control mice receiving vehicle alone. All treatments were carried out with intraperitoneal injections. The body weight and tumor volumes were monitored and determined by measuring length (l) and width (w) and calculated as tumor volume (V = 0.5 × l × w2) at the indicated time points. At the end of treatment period, mice were sacrificed and the tumors were removed and weighed for histological analyses and proteins measurement studies.

A further data set concerns HT-29. As to the kind of experiment: MTT assay, growth inhibition. It counts as cell-based. Particulars: Homo sapiens, HT-29, 24 h. On the procedure: as §1, §2
A further data set concerns HCT-116. As to the kind of experiment: MTT assay, growth inhibition. It counts as cell-based, human. On the procedure: as §1, §2
For a further data set, the system named is SW-480. As to the kind of experiment: MTT assay, growth inhibition. It counts as cell-based, human. Conditions: Homo sapiens, SW480, 24 h. How it is done:
as §1, §2

Data set [5] relates to p-PERK, p-eIF2α, ATF-4 and CHOP. As to the kind of experiment: Western blot of ER stress proteins. It counts as cell-based, human. Particulars: SGC-7901, 10 μM, 1, 3, 6 and 12 h. On the procedure:
(§5) Protein samples were prepared from cells following treatments or tumor tissues. Protein concentration was determined by Bradford protein assay kit (Bio-Rad, Hercules, CA). Samples were separated on precast 8%-12% SDS polyacrylamide gels. After electrophoresis, proteins were transferred to poly vinylidene difluoride (PVDF) membrane. The membranes were blocked with 5% non-fat milk in tris-buffered saline containing 0.1% Tween 20 (TBST) for 90 min at room temperature, then primary antibodies (1:1000) in TBST were added and membranes incubated overnight at 4°C. After washing with TBST, horseradish peroxidase (HRP)-conjugated secondary antibodies (1:3000) were added for 1 hour at room temperature. After additional washing with TBST, enhanced chemiluminescence detection system (ECL, GE Healthcare) was used. Membranes were probed for GAPDH as a loading control. The density of the immunoreactive bands was analyzed using Image J (National Institute of Health, MD).

Data set [6] is described as follows: Body weight of xenograft mice. It counts as in vivo. Conditions: 0–12 days, ip once a day; CA10 10 and 20 mg/kg, curcumin 50 mg/kg.
Text: as §4

In another data set the test system is SGC-7901 cells. As to the kind of experiment: Malondialdehyde (MDA) and total GSH in cancer cells. It counts as cell-based, human. How it is done: The treated cells were harvested with RIPA buffer at 4°C. Cell lysates were then centrifuged at 12,000 × g for 10 min at 4°C to collect the supernatant. Protein content was determined by the Bradford protein assay kit. Equal amounts of proteins were used for malondialdehyde (MDA) and total GSH assay (Beyotime Institute of Biotechnology, Nantong, China). MDA and total GSH levels were detected by measuring absorbance respectively at 532 nm and 412 nm using a multimode microplate reader (Molecular Devices, SpectraMax 190, USA

The next data set deals with p-STAT3. As to the kind of experiment: Western blot of p-STAT3. It counts as cell-based, human. Particulars: SGC-7901, western blot, 1, 3, 6 and 12 h; total STAT3 not changed. On the procedure: as §5
A general note: In western blotting, separated proteins are transferred to a membrane and probed.

For data set [7], the system named is BGC-823. As to the kind of experiment: MTT assay, growth inhibition / cell viability. It counts as cell-based. Particulars: Homo sapiens. How it is done: as §1, §2
Data set [8] concerns SGC-7901. As to the kind of experiment: MTT assay, growth inhibition / cell viability. It counts as cell-based. Conditions: Homo sapiens. How it is done:
as §1, §2

The inhibition is the percentage by which the read-out fell short of the control. The IC50 is the point on the concentration scale where inhibition reaches its midpoint. A higher IC50 goes with weaker potency. On to `C=CCc1cc(C=C2CCC(=Cc3ccc(O)c(CC=C)c3)C2=O)ccc1O` [CA10], for which the “toxicity in vital organs (heart, liver, kidney), H&E” value in data set [1] is “without overt toxicity”. In the data set on GES-1 (20 μM, 24 h), the “inhibition of the normal epithelial cells (selective cytotoxicity in cancer cell lines), in words” value is reported as “minimal inhibition”. In addition, the inhibition at 20 µM in the data set with GES-1 (Homo sapiens, GES1, 24 h, normal gastric epithelial cells) was 23.4 ± 7.48%; in the data set on HT-29, 77.2 ± 4.86%; in the data set with HCT-116 (Homo sapiens, HCT-116, 24 h), 70%; with SW-480 it was 77.4 ± 7.84%; in the data set on BGC-823 [7] (BGC-823, 20 μM, 24 h), 67.5 ± 1.54%; in the data set on SGC-7901 [8] (SGC-7901, 24 h, 20 μM, 24 h) it was over 80%. For the same compound, the number of colonies result in the data set with BGC-823 [2] and with SGC-7901 [3] was “reduced number” throughout. In data set [4] (20 mg/kg ip once a day for 12 days), the “inhibition effect on tumor growth compared to CA10 10 mg/kg or curcumin 50 mg/kg” value is listed as “greater inhibition effect”. Moreover, the “tumor weight and volume” value in [4] (ip once a day for 12 days, CA10 10 and 20 mg/kg, curcumin 50 mg/kg) was “significant reduction”. In addition, the “% Of growth inhibition HCT-116” value in the data set with HCT-116 (20 μM, 24 h) is listed as 75.37 ± 4.52%. The “expression of ER specific proteins (p-PERK, p-eIF2α, ATF-4, CHOP)” value in [5] was “increased expression”. For the same compound, in data set [6], the “body weight of mice” value is listed as “no change”. Further, the “level of total GSH” value with SGC-7901 cells (compared to control) was “no significant changes; also recorded: marginally decreased”. Also, in the data set with SGC-7901 cells (enhanced at 20 μM), the MDA level result is on record as “increased”. The “protein levels of p-STAT3” value in the data set on p-STAT3 is recorded as “decreased”. In addition, the IC50 in the data set with BGC-823 [7] (BGC-823, 24 h) amounted to 13 ± 2.48 µM; in the data set on BGC-823 [7] (BGC-823, 48 h) it was 7.14 ± 1.69 µM; in the data set on SGC-7901 [8] (SGC-7901, 24 h) it was 15 ± 1.72 µM; in the data set with SGC-7901 [8] (SGC-7901, 48 h), 6.91 ± 0.43 µM.
